Patent US20220151994A1, “THERAPEUTIC METHODS AND COMPOSITIONS FOR TREATING LYMPHOMA USING 6,8-BISBENZYLTHIO-OCTANOIC ACID” (Rafael Pharmaceuticals, Inc., priority 2019, published 2022)

Tests used:
[1] = Maximum tolerated dose of CPI-613 as a single agent; type: in vivo; conditions: CPI-613 given as a single agent
Method: In the event that the DLT in ≥2 patients is not observed once the 3,000 mg/m^2 cohort has been tested, dose escalation is also considered to be complete since 3,000 mg/m^2 is the MTD of CPI-613 when given as a single agent. Three additional patients will be enrolled at the MTD for a total of six expected patients at this dose level.

[2] = Toxicities/side effects seen in prior CPI-613 studies treating other types of cancers; type: in vivo
Description: Given the limited data for treating Burkitt lymphoma and other hematological malignancies with CPI-613, the following are the most frequent toxicities seen in prior CPI-613 studies treating other types of cancers.

[3] = pH and stability of CPI-613 drug product diluted with D5W; type: physicochemical; conditions: solution in 1M aqueous triethanolamine diluted from 50 mg/mL to as low as 4 mg/mL with D5W
Method: A solution of 6,8-bis-benzylthio-octanoic acid in 1M aqueous triethanolamine is diluted from 50 mg/mL to as low as 4 mg/mL with sterile 5% dextrose for injection (D5W) prior to administration. After dilution with D5W, the solution is clear and has a pH of 8.4-8.8. The D5W solution of 6,8-bis-benzylthio-octanoic acid is administered as an IV infusion over two hours via a central venous catheter on days 1-5 of every cycle.
CPI-613 must be diluted from 50 mg/mL to 12.5 mg/mL with 5% Dextrose Water (D5W) (i.e., 1 portion of CPI-613 diluted with 3 portions of D5W) prior to administration. The diluted drug product should be visually inspected for clarity. […] After dilution with sterile D5W, the solution is clear and has a pH of 8.4-8.8.

[4] = Photosensitivity of CPI-613; type: physicochemical
Method: Each vial contains 10 mL of CPI-613 at a concentration 50 mg/mL, equivalent to 500 mg of CPI-613. The drug product of CPI-613 is a clear and colorless solution that is free of any particulate matter. CPI-613 should be stored under refrigeration, at 2°-8° C. (36°-46° F.), except when being prepared for administration.

[5] = Compatibility studies with IV infusion sets, IV bags and syringes (Study COM-003); type: physicochemical
Description: Therefore, DEHP-containing IV infusion sets, IV bags or syringes should not be used in mixing or administration of CPI-613. […] Therefore, these 4 types of IV infusion sets, and IV infusion sets that are made with the same materials, can be used to administer CPI-613. […] Therefore, any of these types of syringes, and syringes that are made with the same materials, can be used to administer CPI-613. Also, glass syringes can also be used, since glass (such as glass containers) is compatible with CPI-613 drug product. • Norm-Ject, polyethlyene barrel, polyethylene plunger, latex free (Henke Sass Wolf GMBH) syringes • Becton Dickinson syringes • Terumo syringes • Monoject syringes • Glass syringes

[6] = Animal studies of IV administration of CPI-613; type: in vivo
Method: CPI-613 must be administered IV, via an IV catheter that is free flowing and free of air in the dead space of the IV catheter, to minimize vascular irritation, inflammation and acute toxicity of CPI-613. […] To avoid local reactions at and around the site of administration, CPI-613 must be administered via a central venous catheter.
CPI-613 must not be administered as a bolus, but by infusion, at a rate of ˜0.5 mL/min, via a central venous catheter with D5W running at a rate of about 125-150 mL/hr. This is to minimize potential acute toxicity of CPI-613, according to animal studies.

## O=C(O)CCCCC(CCSCc1ccccc1)SCc1ccccc1 (stereo not drawn) [CPI-613, 6,8-bis-benzylthio-octanoic acid]
[1]
  MTD: 3,000 mg/m^2
[2]
  Common side effects: nausea, leukocytopenia, neutrophils (neutropenia), fatigue, and elevated alkaline phosphatase (ALP)
  Rare but serious side effects: infections, disseminated intravascular coagulation, elevated troponin, and renal failure
[3]
  pH of solution after dilution with D5W: 8.4-8.8
[4]
  Photosensitivity: slightly photosensitive
[5]; PVC, latex and polyethylene sets
  Compatibility with IV infusion sets: compatible with 4 commonly used IV infusion sets
[5]; Study COM-003
  Leaching of DEHP from IV infusion sets and IV bags: can cause leaching of Diethylhexyl Phthalate (DEHP)
[6]; animal studies, IV administration
  Effect of accidental co-administration of extra air in the dead space of IV catheters: potential to induce acute toxicity
[6]; in vivo, iv
  Effect of accidental leakage into the perivascular space during IV administration: can induce significant local inflammation
